The subject of assay [1] is Rattus norvegicus. In words: Change in systolic blood pressure at intervals of 1 hr after oral administration of 1 mg/kg of compound in spontaneously hypertensive rats (in vivo); Not significant. The assay is classed as functional, Artery.
For assay [2], the species on record is Rattus norvegicus. Kind of assay: Percentage of inhibition of noradrenaline-induced contractions in rat portal vein at 10 uM (in vitro). Format: functional.
The species entered for assay [3] is Cavia porcellus. In words: In vitro inhibition of spontaneous tone of guinea pig tracheal spirals. As to conditions: Trachea. The assay is classed as functional.
The species entered for assay [4] is Rattus norvegicus. Kind of assay: In vitro inhibition of noradrenaline-induced contractions in rat portal vein. Format: functional.
For assay [5], the system named is Rattus norvegicus. In words: Effective dose (after peroral administration) required to decrease systolic blood pressure by 30 mmHg in spontaneously hypertensive rats (SHR). The assay is classed as functional. As to conditions: Artery, po.
In assay [6] the test system is Rattus norvegicus. In words: Change in systolic blood pressure at intervals of 1 hr after oral administration of 1 mg/kg of compound in spontaneously hypertensive rats (in vivo). The assay is classed as functional, Artery.
For assay [7], the species on record is Rattus norvegicus. Kind of assay: Inhibition of noradrenaline-induced contractions in rat portal vein; Insoluble. Format: functional.
Assay [8] is filed under the species Cavia porcellus. In words: Inhibition of spontaneous tone of guinea pig tracheal spirals; Insoluble. The assay is classed as functional, Trachea.
For assay [9], the system named is Rattus norvegicus. Kind of assay: Change in systolic blood pressure at intervals of 1 hr after oral administration of 0.1 mg/kg of compound in spontaneously hypertensive rats (in vivo). Format: functional, Artery.

The term inhibition denotes the change of the read-out against control, counted positive when it falls. In the assay on Rattus norvegicus [1], `COc1ccc2c(c1)C(N1CCCC1=O)=CC(C)(C)C2=O` displayed a Delta blood pressure below 20 mmHg. Also, in the assay filed under Rattus norvegicus [2], the inhibition at 10 µM is 20%.

The compound `CC1(C)C(=O)c2ccccc2[C@@H](n2ccccc2=O)[C@@H]1O` displayed a Delta blood pressure in the assay on Rattus norvegicus [1] below 20 mmHg. This compound also displayed an inhibition at 10 µM in the assay listed under Rattus norvegicus [2] of 0%.

The IC50 is the concentration at which inhibition is half-maximal. `CC1(C)C(=O)c2ccc(C#N)cc2[C@@H](NC(=O)c2ccc(Cl)c(Cl)c2)[C@@H]1O`: the IC50 in the assay listed under Cavia porcellus [3] was above 10000 nM. Also, in the assay with Rattus norvegicus [1], the Delta blood pressure was below 20 mmHg. Also, the inhibition at 10 µM in the assay filed under Rattus norvegicus [2] was found to be 67%.

Consider `CC1(C)C=C(n2ccccc2=O)c2cc(C#N)ccc2C1=O`, for which the IC50 in the assay listed under Cavia porcellus [3] was found to be 500 nM; in the assay listed under Rattus norvegicus [4] it was 600 nM. Also, the ED30 with Rattus norvegicus [5] stood at 4 µg/kg.

With `CC1(C)C(=O)c2ccc(C#N)cc2[C@@H](Oc2ccc(=O)[nH]n2)[C@@H]1O`, the IC50 in the assay filed under Cavia porcellus [3] worked out at 2100 nM; in the assay filed under Rattus norvegicus [4], 8800 nM. The ED30 with Rattus norvegicus [5] amounted to 6 µg/kg.

For the compound `CNc1ccc2c(c1)C(n1ccccc1=O)=CC(C)(C)C2=O`, the IC50 is 9100 nM in the assay filed under Cavia porcellus [3] and 52000 nM in the assay listed under Rattus norvegicus [4]. Besides, the Delta blood pressure in the assay on Rattus norvegicus [1] is below 20 mmHg.

In the assay filed under Cavia porcellus [3], `C/C(=N/[C@@H]1c2cc(C#N)ccc2C(=O)C(C)(C)[C@H]1O)NC#N` came in with an IC50 of 3500 nM. The compound further gave a Delta blood pressure in the assay with Rattus norvegicus [1] below 20 mmHg. The compound also yielded an inhibition at 10 µM in the assay listed under Rattus norvegicus [2] of 19%.

`CC(=O)OC1c2ccc(Br)cc2C(n2ccccc2=O)=CC1(C)C` (stereo not given): the IC50 in the assay listed under Cavia porcellus [3] was above 10000 nM. Further, in the assay with Rattus norvegicus [1], the Delta blood pressure was below 20 mmHg. In the assay filed under Rattus norvegicus [2], this compound came in with an inhibition at 10 µM of 38%.

`CC1(C)C(=O)c2ccc(C#N)cc2[C@@H](NC(=O)c2ccc(Cl)cc2Cl)[C@@H]1O`: in the assay listed under Cavia porcellus [3], the IC50 is above 10000 nM. For the same compound, in the assay on Rattus norvegicus [1], the Delta blood pressure was below 20 mmHg. For the same compound, the inhibition at 10 µM in the assay filed under Rattus norvegicus [2] was determined as 35%.

In the case of `CC1(C)C(=O)c2ccc(C#N)cc2[C@@H](OC2=CC(=O)CC2)[C@@H]1O`, the Delta blood pressure with Rattus norvegicus [6] came out at 50 mmHg. In the assay filed under Cavia porcellus [3], this compound had an IC50 above 10000 nM. Also, in the assay filed under Rattus norvegicus [2], the inhibition at 10 µM was found to be 9%.

In the case of `CC1(C)C(=O)c2ccc(C#N)cc2[C@@H](NC(=O)c2ccncc2)[C@@H]1O`, the IC50 in the assay listed under Cavia porcellus [3] is above 10000 nM. The compound further came in with a Delta blood pressure in the assay on Rattus norvegicus [1] below 20 mmHg. In the assay filed under Rattus norvegicus [2], the inhibition at 10 µM came out at 39%.

For `CC1(C)C(=O)c2ccc(Br)cc2[C@@H](N2CCN=C2NC#N)[C@@H]1O`, the “Max fall in blood pressure” value with Rattus norvegicus [6] is 27.6 mmHg. In the assay listed under Cavia porcellus [3], the IC50 was above 10000 nM. This compound also registered an inhibition at 10 µM in the assay filed under Rattus norvegicus [2] of 8%.

In the case of `CC1(C)C=C(n2ccccc2=O)c2cc(Br)ccc2C1(C)O` (stereo not given), in the assay listed under Cavia porcellus [3], inhibition was half-maximal at 4200 nM (IC50). In the assay with Rattus norvegicus [1], this compound yielded a Delta blood pressure below 20 mmHg. Also, the inhibition at 10 µM in the assay listed under Rattus norvegicus [2] came out at 23%.

On to `Cn1nc(O[C@@H]2c3cc(C#N)ccc3C(=O)C(C)(C)[C@H]2O)ccc1=O`, for which the IC50 in the assay listed under Cavia porcellus [3] was 600 nM; in the assay filed under Rattus norvegicus [4], 2800 nM. In addition, the ED30 in the assay with Rattus norvegicus [5] amounted to 40 µg/kg.

`CC1(C)C=C(n2ccccc2=O)c2cc(C#C[Si](C)(C)C)ccc2C1=O`: the IC50 in the assay filed under Cavia porcellus [3] was determined as 2400 nM; in the assay listed under Rattus norvegicus [4], 500 nM. Moreover, in the assay with Rattus norvegicus [5], the ED30 stood at 5 µg/kg.

In turn, `CC1(C)C=C(n2ccccc2=O)c2cc(C(=O)O)ccc2C1=O` gave an IC50 in the assay filed under Cavia porcellus [3] above 10000 nM. In addition, the Delta blood pressure in the assay with Rattus norvegicus [1] was below 20 mmHg. The inhibition at 10 µM in the assay filed under Rattus norvegicus [2] was 0%.

Turning to `C#Cc1ccc2c(c1)C(n1ccccc1=O)=CC(C)(C)C2=O`, the “Max fall in blood pressure” value with Rattus norvegicus [6] was determined as 94 mmHg. Moreover, the half-maximal inhibitory concentration (IC50) was found to be 200 nM in the assay listed under Cavia porcellus [3] and 1000 nM in the assay listed under Rattus norvegicus [4]. Besides, the ED30 with Rattus norvegicus [5] turned out to be 2 µg/kg.

Take `COc1ccc2c(c1)[C@@H](n1ccccc1=O)[C@H](O)C(C)(C)C2=O`: in the assay on Rattus norvegicus [6], the “Max fall in blood pressure” value stood at 42.9 mmHg. This compound also gave an IC50 in the assay listed under Cavia porcellus [3] above 10000 nM. This compound had an inhibition at 10 µM in the assay filed under Rattus norvegicus [2] of 0%.

In the case of `CC1(C)C=C(n2ccccc2=O)c2cc(C(F)(F)C(F)(F)F)ccc2C1=O`, the IC50 result in the assay listed under Rattus norvegicus [7] and in the assay filed under Cavia porcellus [8] was “Insoluble” throughout. This compound yielded an ED30 in the assay on Rattus norvegicus [5] of 2 µg/kg. In the assay with Rattus norvegicus [9], the “Max fall in blood pressure” value came out at 81 mmHg.

`CC1(C)C=C(n2ccccc2=O)c2cc(C(F)(F)F)ccc2C1=O`: the IC50 in the assay listed under Cavia porcellus [3] was found to be 500 nM; in the assay filed under Rattus norvegicus [4], 300 nM. The compound also showed an ED30 with Rattus norvegicus [5] of 5 µg/kg.

`CC1(C)C(=O)c2ccc(C#N)cc2[C@@H](NC(=O)c2ccc([N+](=O)[O-])cc2)[C@@H]1O`: the IC50 in the assay listed under Cavia porcellus [3] was found to be 7900 nM; in the assay filed under Rattus norvegicus [4], 4900 nM. In the assay with Rattus norvegicus [1], the Delta blood pressure is on record as below 20 mmHg.

In the case of `CC1(C)C=C(n2ccccc2=O)c2cc(Br)ccc2C1=O`, the IC50 in the assay filed under Cavia porcellus [3] turned out to be 200 nM; in the assay listed under Rattus norvegicus [4], 500 nM. The ED30 in the assay on Rattus norvegicus [5] was 9 µg/kg. Further, the “Max fall in blood pressure” value with Rattus norvegicus [9] came out at 42.6 mmHg.

For `CC1(C)C=C(N2CCCC2=O)c2ccccc2C1=O`, the Delta blood pressure in the assay with Rattus norvegicus [1] is given as below 20 mmHg. This compound also had an inhibition at 10 µM in the assay listed under Rattus norvegicus [2] of 0%.

For `CC1(C)C=C(n2ccccc2=O)c2cc(C(N)=O)ccc2C1=O`, in the assay filed under Cavia porcellus [3], the IC50 was above 10000 nM. Moreover, in the assay on Rattus norvegicus [1], the Delta blood pressure is given as below 20 mmHg. In the assay listed under Rattus norvegicus [2], this compound returned an inhibition at 10 µM of 21%.

As for `CC1(C)C=C(N2CCCC2=O)c2cc(C#N)ccc2C1=O`, the figures for the IC50 in the assay filed under Cavia porcellus [3] and in the assay filed under Rattus norvegicus [4] were 900 nM and 800 nM, respectively. In the assay with Rattus norvegicus [5], this compound showed an ED30 of 30 µg/kg.

`CC1(C)Oc2ccc(C#N)cc2C(N2CCCC2=O)C1O` (racemic) [CROMAKALIM] displayed an ED30 in the assay with Rattus norvegicus [5] of 50 µg/kg.

For `CC1(C)Oc2ccc(C#N)cc2[C@@H](N2CCCC2=O)[C@@H]1O` [LEVCROMAKALIM], the IC50 is 300 nM in the assay listed under Cavia porcellus [3] and 100 nM in the assay filed under Rattus norvegicus [4]. In the assay on Rattus norvegicus [5], this compound had an ED30 of 10 µg/kg. Also, the “Max fall in blood pressure” value with Rattus norvegicus [9] is 73 mmHg.

For the origin of these results see ChEMBL document CHEMBL1126745, “2,2-Dialkylnaphthalen-1-ones as new potassium channel activators” (J Med Chem, 1993).
